Data: paper PMC6767236, “Selective Cannabinoid 2 Receptor Agonists as Potential Therapeutic Drugs for the Treatment of Endotoxin-Induced Uveitis” (Molecules, 2019)

Columns and labels:
[1] = system: adhesion of adoptively-transferred leukocytes in the iridial microcirculation; experiment: Adoptive transfer of WT leukocytes into neutrophil-depleted CB2R-/- mice with EIU; type: in vivo; conditions: neutrophil-depleted CB2R-/- recipients with EIU, topical
Procedure: (§1) For adoptive transfer experiments, calcein-AM-labelled leukocytes were visualized by fluorescence (495 nm excitation) in the iridial microcirculation using a Leica DMLM epifluorescence microscope (Leica, Wetzlar, Germany) equipped with a mercury-arc light source (LEG EBQ 100, Carl Zeiss, Jena, Germany) and captured by a CCD video camera (SIT 68, DAGE MTI, Michigan, IN, USA). Videos were recorded using WinDV Capture software (Mourek, Prague, Czech Republic) and stored on an external hard drive.
(§2) During IVM animals were placed on a heating pad in a stereotactic frame, and Tear-Gel® (Novartis Pharmaceuticals Canada Inc., Dorval, QC, Canada) was applied to their cornea. The iris was divided into four equal quadrants by drawing two superficial lines on the cornea, lengthwise and widthwise. […] Two to four videos of each quadrant were recorded for 30 s each. Videos were analyzed off-line without knowledge of the treatment groups. […] Using ImageJ software (National Institute of Health, Bethesda, MD, USA) the number of adherent leukocytes within each vessel segment was calculated by measuring the diameter and length of vessel segment studied, assuming a cylindrical geometry of blood vessels. Adherent leukocytes were expressed as number of cells per mm^2 of endothelial surface. […] The number of rolling leukocytes was counted for 30 s and used to calculate the number of rolling leukocytes per min. […]

human CB1R = molecular target: T1, human CB1R (Homo sapiens, UniProt P21554); experiment: PathHunter β-arrestin recruitment assay, hCB1R; type: cell-based; conditions: read-out: hCB1R: beta arrestin EC50
T1 construct: host or cells: CHO
Procedure: Assays were carried out using the PathHunter hCB1_bgal, hCB2_bgal, or mCB2_bgal CHOK1 β-arrestin recruitment assay kit (DiscoveRx, Fremont, CA, USA) as previously described. A total of 5000 cells per well were seeded in 384-well plates (Perkin Elmer, MA, USA) containing 20 μL cell culture medium and incubated for 16–18 h at 37 °C and 5% CO2. Cells were stimulated with 10 μM of each agonist or 11 increasing concentrations and incubated for 90 min at 37 °C and 5% CO2. […] The cells were incubated for 90 min at 37 °C and 5% CO2. Compounds in DMSO stock solutions were added using a HP D300 Digital Dispenser (Tecan, Mannedorf, Switzerland). The final concentration of organic solvent per assay point was ≤ 0.1%. The PathHunter Detection mixture was used, according to the manufacturer’s protocol, to determine the β-galactosidase enzyme activity. Detection mixture, 12 μL per well, was added and the plate was incubated for 1 h in the dark at room temperature. Chemiluminescence, indicated as relative light unit, was measured on an EnVision multilabel plate reader (Perkin Elmer, MA, USA).

[2] = system: adhesion of adoptively-transferred leukocytes in the iridial microcirculation; experiment: Adoptive transfer of WT leukocytes into neutrophil-depleted WT mice with EIU; type: in vivo, mouse; conditions: topical 1.5% w/v, 6 h post-EIU
Procedure: as §1, §2

T1 sequence (P21554 whole entry): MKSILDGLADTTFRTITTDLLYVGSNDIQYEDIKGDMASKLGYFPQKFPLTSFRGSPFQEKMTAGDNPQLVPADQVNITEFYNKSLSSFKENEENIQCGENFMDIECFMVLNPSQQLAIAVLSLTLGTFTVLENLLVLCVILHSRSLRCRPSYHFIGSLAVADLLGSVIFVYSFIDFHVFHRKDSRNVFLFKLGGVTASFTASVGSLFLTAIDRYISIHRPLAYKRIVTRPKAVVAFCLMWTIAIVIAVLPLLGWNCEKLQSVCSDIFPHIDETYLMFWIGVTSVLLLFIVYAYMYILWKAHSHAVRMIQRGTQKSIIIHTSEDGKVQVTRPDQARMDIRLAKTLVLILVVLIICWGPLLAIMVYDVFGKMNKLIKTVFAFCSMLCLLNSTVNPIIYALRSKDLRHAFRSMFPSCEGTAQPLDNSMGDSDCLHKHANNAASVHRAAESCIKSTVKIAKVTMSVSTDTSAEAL

`CC(C)(C)c1nc(N2CC[C@H](O)C2)c2nnn(Cc3nnnn3C3CC3)c2n1` [RO6871304, (3S)-1-{5-tert-butyl-3-[(1-cyclopropyl-1H-tetrazol-5-yl)methyl]-3H-[1,2, 3]triazolo[4,5-d]pyrimidin-7-yl}pyrrolidin-3-ol] was tested, and the “adhesion of adoptively-transferred leukocytes” value [1] was “did not affect adhesion of adoptively-transferred leukocytes”, the EC50 (human CB1R) was over 30 µM and the “decrease of LPS-induced adhesion of adoptively-transferred leukocytes compared to vehicle” value [2] was 64 fold.
